US20120149631A1 (priority 2009, published 2012)
Converted amounts (≈) assume the structure as drawn. Read-outs that look alike come from different tables or passages of the source. No end group written: not given here.

Tests used:
[1] = test system: A. actinomycetemcomitans Y4
A. actinomycetemcomitans [2] = test: microbe, parasite or virus in culture; assay type: cell-based
[3] = test system: K12 E. coli (ATCC #25404)
F. novicida biofilm = assay type: cell-based, F. novicida (F. tularensis novicida)
F. novicida = settings: 24 h
P. aeruginosa biofilms = settings: Overhage 2008; cited from earlier work
A. actinomycetemcomitans [4] = settings: cited from earlier work
E. coli (ATCC 25922) = settings: cited from earlier work
P. aeruginosa = P. aeruginosa (ATCC 27853); cited from earlier work
[5] = read-out: EC50 uM, E. coli, 3 h incubation, CFU enumeration
[6] = Aggregatibacter actinomycetemcomitans
[7] = Aggregatibacter actinomycetemcomitans, read-out: EC50 in μM

In the case of “hBD-4: antimicrobial listed in Table 6, not further described (EFELDRICGYGTARCRKKCRSQEYRIGRCPNTYACCLRKWDESLLNRTKP; UniProt Q8WTQ1 23-72, looked up)”, the “EC50 (μg/mL)” value [1] is reported as at least 100 µg/mL and the EC50 ([1]; read-out: EC50 in μM) is reported as over 22.9 µM.
“GLRKRLRKFRNKIKEKLKKIGQKIQGLLPKLAPRTDY [CAP-18]” showed an EC50 ([1]; 24 h) of 1.59 µM.
“RLKELITTGGQKIGEKIRRIGQRIKDFFKNLQPREEKS [K9CATH]” showed an EC50 ([1]; 24 h) of 0.111 µM.
For gentamicin, the “EC50 (μg/mL)” value (A. actinomycetemcomitans [2]) was 1.597 µg/mL and the EC50 (A. actinomycetemcomitans [2]; read-out: EC50) was 3.34 µM.
With `CC[C@H](C)[C@H](NC(=O)[C@H](CCCCN)NC(=O)[C@H](CCC(=O)O)NC(=O)[C@H](CCCCN)NC(=O)[C@H](CO)NC(=O)[C@H](CCCCN)NC(=O)[C@H](CCCNC(=N)N)NC(=O)[C@H](Cc1ccccc1)NC(=O)[C@H](Cc1ccccc1)NC(=O)[C@H](CC(=O)O)NC(=O)CNC(=O)[C@H](CC(C)C)NC(=O)[C@@H](N)CC(C)C)C(=O)NCC(=O)N[C@@H](CCCCN)C(=O)N[C@@H](CCC(=O)O)C(=O)N[C@@H](Cc1ccccc1)C(=O)N[C@@H](CCCCN)C(=O)N[C@@H](CCCNC(=N)N)C(=O)N[C@H](C(=O)N[C@H](C(=O)N[C@@H](CCC(N)=O)C(=O)N[C@@H](CCCNC(=N)N)C(=O)N[C@H](C(=O)N[C@@H](CCCCN)C(=O)N[C@@H](CC(=O)O)C(=O)N[C@@H](Cc1ccccc1)C(=O)N[C@@H](CC(C)C)C(=O)N[C@@H](CCCNC(=N)N)C(=O)N[C@@H](CC(N)=O)C(=O)N[C@@H](CC(C)C)C(=O)N[C@H](C(=O)N1CCC[C@H]1C(=O)N[C@@H](CCCNC(=N)N)C(=O)N[C@H](C(=O)N[C@@H](CCC(=O)O)C(=O)N[C@@H](CO)C(=O)O)[C@@H](C)O)C(C)C)[C@@H](C)CC)C(C)C)[C@@H](C)CC` [LL-37] the EC50 ([3]; E. coli K12) was 0.519 µg/mL, the “EC50” value ([3]; E. coli, 3 h incubation, CFU enumeration) was 0.514 µg/mL and the EC50 [3, 5] was 0.114 µM. For the same compound, the “concentration with significant inhibition of biofilm formation” value (F. novicida biofilm) was at most 3.8 ng/mL, the inhibition of growth (F. novicida biofilm) was “no inhibition of growth” and the MIC (F. novicida) was “greater than 250 μg/ml”. For the same compound, the “concentration inhibiting formation of biofilms” value (P. aeruginosa biofilms) was 0.05 µg/mL, the “EC50 ug/mL” value [1] was 6.24 µg/mL (≈ 1.39 µM) and the EC50 [1] was 6.224 µg/mL. For the same compound, the “EC50 (μg/mL)” value [1] was 6.244 µg/mL (≈ 1.39 µM), the EC50 ([1]; 24 h) was 1.39 µM and the ED99 (A. actinomycetemcomitans [4]) was 8.2 µg/mL. For the same compound, the MBC (A. actinomycetemcomitans [4]) was “above 100 μg/mL”.
Compound `CC1(C)S[C@@H]2[C@H](NC(=O)[C@H](N)c3ccc(O)cc3)C(=O)N2[C@H]1C(=O)O` [amoxicillin] has an EC50 (A. actinomycetemcomitans [2]; [6]) of 29.6 µg/mL and an EC50 (A. actinomycetemcomitans [2]; [7]) of 80.9 µM.
In the case of `CC1(C)S[C@@H]2[C@H](NC(=O)[C@H](N)c3ccccc3)C(=O)N2[C@H]1C(=O)O` [ampicillin], the EC50 (A. actinomycetemcomitans [2]; [6]) is reported as 75 µg/mL and the EC50 (A. actinomycetemcomitans [2]; [7]) is reported as 215 µM.
GGLRSLGRKILRAWKKYGPIIVPIIRIG [BMAP-28] gave an EC50 ([1]; 24 h) of 0.215 µM.
`Cc1ncc([N+](=O)[O-])n1CCO` [metronidazole] gave an EC50 (A. actinomycetemcomitans [2]; [6]) of 19.5 µg/mL and an EC50 (A. actinomycetemcomitans [2]; [7]) of 114 µM.
With `CCC[C@@H]1C[C@@H](C(=O)N[C@@H]([C@H]2O[C@H](SC)[C@H](O)[C@@H](O)[C@H]2O)[C@H](C)Cl)N(C)C1` [clindamycin] the EC50 (A. actinomycetemcomitans [2]; [6]) was over 250 µg/mL and the EC50 (A. actinomycetemcomitans [2]; [7]) was over 542 µM.
KRFKKFFKKPK-NH2 [ATRA-1P] gave an EC50 [3, 5] of 4.76 µM.
`CC[C@H]1OC(=O)[C@H](C)[C@@H](O[C@H]2C[C@@](C)(OC)[C@@H](O)[C@H](C)O2)[C@H](C)[C@@H](O[C@@H]2O[C@H](C)C[C@H](N(C)C)[C@H]2O)[C@](C)(O)C[C@@H](C)CN(C)[C@H](C)[C@@H](O)[C@]1(C)O` [azithromycin] gave an EC50 (A. actinomycetemcomitans [2]; [6]) of 34.4 µg/mL and an EC50 (A. actinomycetemcomitans [2]; [7]) of 45.9 µM.
For “GLLSRLRDFLSDRGRRLGEKIERIGQKIKDLSEFFQS [PMAP-37]”, the MIC (E. coli (ATCC 25922)) is listed as 1 µM, the MIC (P. aeruginosa) is listed as 4 µM and the EC50 ([1]; 24 h) is listed as 1.25 µM.
KRAKKFFKKLK-NH2 [ATRA-1A] showed an EC50 [3, 5] of 0.659 µM.
